The text below walks through data of ChEMBL document CHEMBL1201862, “PubChem BioAssay data set” (2004).

Active and inactive are the calls of the source. Rule as the data show it, for most assays here: actives have a measured EC50 and inactives only a lower limit.

Test [1] deals with T1, Rac GTPase-activating protein 1 (Homo sapiens, UniProt Q9H0H5).
T1 sequence (Q9H0H5 whole entry): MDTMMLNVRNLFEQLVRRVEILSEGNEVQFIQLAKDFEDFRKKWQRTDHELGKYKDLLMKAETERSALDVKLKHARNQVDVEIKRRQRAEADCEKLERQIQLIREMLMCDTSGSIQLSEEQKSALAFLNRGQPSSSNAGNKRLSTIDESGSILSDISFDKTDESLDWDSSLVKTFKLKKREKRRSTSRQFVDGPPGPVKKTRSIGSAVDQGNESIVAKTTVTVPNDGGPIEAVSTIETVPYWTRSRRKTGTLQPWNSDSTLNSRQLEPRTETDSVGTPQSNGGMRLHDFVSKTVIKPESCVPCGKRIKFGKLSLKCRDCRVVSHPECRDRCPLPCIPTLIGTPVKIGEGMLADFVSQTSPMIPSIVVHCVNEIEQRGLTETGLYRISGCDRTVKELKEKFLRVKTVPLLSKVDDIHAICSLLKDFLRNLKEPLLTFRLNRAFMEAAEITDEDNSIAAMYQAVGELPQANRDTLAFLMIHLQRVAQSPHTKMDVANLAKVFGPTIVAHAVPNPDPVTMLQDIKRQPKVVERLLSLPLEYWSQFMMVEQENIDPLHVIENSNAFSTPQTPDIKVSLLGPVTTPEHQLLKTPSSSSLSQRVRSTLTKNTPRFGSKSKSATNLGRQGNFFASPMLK
In words: blockers of MgcRacGAP-driven Rac1 GTP hydrolysis – biochemical, ADP Hunter fluorescence, primary and confirmatory, confirmation (AID 624330). The class given is functional.

A further test concerns INS1. The experiment in a line: INS-1E survival protection against cytokine death – cell-based, luminescence, retest, dose response (AID 449756).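 Also: cell death triggered by IL-1 beta plus TNF-alpha plus IFN-gamma mixture; protective hits raise ATP signal compared with cytokine alone wells.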 The following applies: Rattus norvegicus. The class given is functional.
Test [2] is described as follows: Luminescence Cell-Based Dose Confirmation HTS to Identify Activators of 5'UTR Stem-Loop Driven Alpha-Synuclein mRNA Translation in H4 Neuroglioblastoma Cells. [Related pubchem assays: 1829 (Project Summary), 1814 (Primary HTS)]. The class given is functional.
The test system of another test is H4. The experiment in a line: Luminescence Cell-Based Dose Response HTS to Identify Activators of 5'UTR Stem-Loop Driven Prion Protein mRNA Translation in H4 Neuroglioblastoma Cells. [Related pubchem assays: 1829 (Project Summary), 1814 (Primary HTS)]. The following applies: Homo sapiens. The class given is functional.
Test [3] is described as follows: Luminescence Cell-Based Dose Response HTS to Identify Activators of Luciferase Translation or Activity in H4 […] Cells. [Related pubchem assays: 1829 (Project Summary), 1814 (Primary HTS)]. The class given is functional.
In test [4] the test system is Streptococcus sp. 'group A'. The experiment in a line: Streptococcus pyogenes SK(-)GAS viability under kanamycin – luminescence, BacTiterGlo, confirmation, counter-screen for streptokinase expression inhibitor project, dose response (AID 1900). The class given is functional, organism-based. The following applies: read-out: EC50. (The purpose of a counterscreen is to sort out artefacts and off-target activity.)

In another test the target is T2, Streptokinase A (Streptococcus pyogenes serotype M1, UniProt P10520).
T2 sequence (P10520 whole entry): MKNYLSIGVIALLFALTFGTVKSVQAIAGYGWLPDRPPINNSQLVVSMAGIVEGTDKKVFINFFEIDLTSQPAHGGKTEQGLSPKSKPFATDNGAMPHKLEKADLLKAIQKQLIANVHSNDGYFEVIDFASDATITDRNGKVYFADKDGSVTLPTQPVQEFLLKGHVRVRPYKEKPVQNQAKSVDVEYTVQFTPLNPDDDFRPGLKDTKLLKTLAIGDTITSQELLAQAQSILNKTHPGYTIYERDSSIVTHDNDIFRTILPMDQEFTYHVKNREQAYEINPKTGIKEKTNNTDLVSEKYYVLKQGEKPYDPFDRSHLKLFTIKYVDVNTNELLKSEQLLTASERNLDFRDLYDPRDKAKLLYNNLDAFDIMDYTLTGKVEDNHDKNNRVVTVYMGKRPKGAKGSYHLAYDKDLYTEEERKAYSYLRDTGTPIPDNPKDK
In words: viability-normalized secreted streptokinase activity reduction – plasminogen activation absorbance, OD405, dose response (AID 1914).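 Also: secreted streptokinase activity via plasminogen activation per viability signal from cell pellet.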 The class given is functional, Streptococcus pyogenes M1 GAS.

Another test concerns Streptococcus. In words: GAS UMAA2166 growth inhibition – luminescence, BacTiterGlo, counter-screen for streptokinase expression inhibitor project, dose response (AID 1915).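 Also: potency for reduction of bacterial viability or growth.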 The class given is functional, organism-based.
Test [5] can be described thus: viability of uninfected HEp-2 cells – cell-based, HTS, cytotoxicity control for RSV inhibitor project, dose response (AID 2410). The class given is functional. Particulars: human respiratory syncytial virus.
For a further test, the target named is Paired box protein Pax-8 (Homo sapiens, UniProt Q06710). The experiment in a line: PAX8 transcriptional activity inhibition in RMG-I – RMG-I cells, luciferase, cherry-pick, dose response (AID 687027).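 Also: luciferase reporter driven by Pax8 target thyroperoxidase promoter measured by SteadyGlo luminescence.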 The class given is functional, cell-based.
Paired box protein Pax-8, sequence (Q06710 whole entry): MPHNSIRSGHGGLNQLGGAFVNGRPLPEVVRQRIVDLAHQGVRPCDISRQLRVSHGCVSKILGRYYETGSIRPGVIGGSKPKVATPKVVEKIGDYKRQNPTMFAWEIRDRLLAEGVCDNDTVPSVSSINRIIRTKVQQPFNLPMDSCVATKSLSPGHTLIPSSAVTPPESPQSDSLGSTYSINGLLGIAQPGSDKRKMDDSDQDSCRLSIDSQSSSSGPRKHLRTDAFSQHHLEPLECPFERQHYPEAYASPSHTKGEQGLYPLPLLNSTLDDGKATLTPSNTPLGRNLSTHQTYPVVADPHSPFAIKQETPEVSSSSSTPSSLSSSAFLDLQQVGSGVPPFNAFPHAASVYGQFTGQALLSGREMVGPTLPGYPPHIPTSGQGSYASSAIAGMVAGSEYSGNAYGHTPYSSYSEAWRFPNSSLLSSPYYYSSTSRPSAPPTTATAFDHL
Test [6] can be described thus: Luminescence Cell-Based Dose Retest to Confirm Inhibitors of Cancer Stem Cells. [Related pubchem assays (depositor defined):AID2717, AID2721]. Particulars: Homo sapiens. The class given is functional, Homo sapiens.

For the compound `COc1cc(/C=N/N2CCN(c3ccccc3OC)CC2)ccc1O`, the half-maximal inhibitory concentration (IC50) in [1] was 36.7 µM (active). As for `O=C(NCc1cccnc1)c1ccc([N+](=O)[O-])cc1`, in the test with INS1, the AC50 was 3.6 µM (active). `COc1ccc(OC(=O)COc2cccc(C)c2)cc1`: in [1], the IC50 is 52.9 µM (active). Take `Cc1ccc2nc3ccc(N4CCCC4)nn3c(=O)c2c1`: the EC50 in [2] is 0.723 µM (active); in the test with H4, > 120 µM (not active); in test [3] it was 0.558 µM (active).

Consider `CC(=O)Nc1cccc(-n2nnc(SCC(=O)c3ccccc3)n2)c1`, for which the EC50 in [2] is 10.5 µM (active); with H4 it was 2.02 µM (active); in [3], 19.8 µM (active). On to `O=C(CSc1nc(O)c2cnn(-c3ccccc3)c2n1)N1N=C(c2cccs2)CC1c1ccc(F)cc1` (stereo not drawn), for which the EC50 in test [4] is 3.15 µM (active); at Streptokinase A, > 150 µM (not active); in the test with Streptococcus, 7.18 µM (active).

For `COc1ccc(-c2cc(C(F)F)n3ncc(C(=O)N4CCc5ccccc5C4)c3n2)cc1`, the CC50 in [5] was 28.3 µM (active). For the compound `Cc1ccc(C(=O)NCCC(=O)N2CCCC2)cc1`, the EC50 in test [2] was 0.419 µM (active); in the test on H4, > 120 µM (not active); in test [3], 5.97 µM (active). `CC(C)(C)c1ccc(C(=O)N2CCN(C(=O)c3ccco3)CC2)cc1`: the EC50 (in test [4]; at Streptokinase A; in the test with Streptococcus) was > 150 µM (not active) each time.

Consider `Nc1nc2nc[nH]c2c(=S)[nH]1` [THIOGUANINE], for which the AC50 at Paired box protein Pax-8 was 1.18 µM (active).

Consider `Nc1cc(-c2ccc(Br)cc2)nn1S(=O)(=O)c1cccc2nsnc12`, for which, in test [5], the CC50 was 11.2 µM (active).

As to `CCN1CCN(CCOc2cccc(Oc3ccccc3)c2)CC1`, the IC50 in test [1] was 106 µM (active). On to `O=C(Nc1ccc(N2CCN(C(=O)c3ccc(Cl)cc3)CC2)cc1)c1cccnc1`, for which, in the test with INS1, the AC50 is 5.43 µM (active). On to `Nc1ccc2[nH]c(-c3cccnc3)nc2c1`, for which the IC50 in test [1] was 155 µM (active).

Take `O=C(c1cc2ccccn2n1)N1CCN(Cc2ccccc2)CC1`: the values for the EC50 (in [2]; with H4; in test [3]) were 6.68 µM (active), 9.44 µM (active) and 24.1 µM (active), respectively. For `Nc1ccc(C(=O)c2ccc3c(c2)OCCO3)cc1N`, in [1], the IC50 was 22.9 µM (active). Besides, the EC50 in test [2] was 9.68 µM (active); in the test on H4 it was 21.2 µM (active); in test [3], 8.7 µM (active).

As for `O=C(CSc1ncnc2sc3c(c12)CCCC3)c1ccccc1`, the EC50 in [2] was 11.6 µM (active); in the test on H4 it was 28.8 µM (active); in [3], 9.61 µM (active). As to `Cc1ccc(-c2cn(-c3ccccc3)c(SCC(=O)NC3CCS(=O)(=O)C3)n2)cc1C` (stereo not drawn), the EC50 is 1.36 µM (active) in [2], 0.301 µM (active) in the test with H4 and 8.74 µM (active) in test [3]. Consider `O=C(c1ccc(F)cc1)N1C[C@@H]2N[C@H](C1)[C@@H]2c1ccc(-c2ccc(F)cc2)cc1`, for which the AC50 on Paired box protein Pax-8 is 18.3 µM (active). For the compound `COc1ccccc1NC(=O)Cn1c(CN2CCCCC2)nc2ccccc2c1=O`, the figures for the EC50 (in test [2]; in the test on H4; in test [3]) were > 120 µM (not active), 37.8 µM (active) and > 120 µM (not active), respectively.

As to `O=[N+]([O-])c1cc(S(=O)(=O)/N=C(/c2ccccc2)N2CCOCC2)ccc1Cl`, the EC50 in test [2] was 0.714 µM (active); in [3] it was 14.6 µM (active). As to `CN1C(=O)C(=Cc2c(OCc3cnc(Cl)s3)ccc3ccccc23)C(=O)N(C)C1=O`, in test [5], the 50% cytotoxic concentration (CC50) is 20.3 µM (active). The same measure, in the same setting: for `Cc1cc(C)c([N+](=O)[O-])cc1-c1ccc(/C=N/NC(=O)c2nonc2N)o1` the value was > 50 µM (active). For `C[C@@H]1CCCCO[C@H](CN(C)S(=O)(=O)c2ccc(Cl)cc2)[C@H](C)CN([C@@H](C)CO)C(=O)c2cc(N(C)C)ccc2O1`, at Paired box protein Pax-8, the AC50 is 8.81 µM (active).

In the case of `COc1ccc(C(=O)N2CCN(C3CCN(Cc4ccccc4)CC3)CC2)cc1OC`, in test [1], the IC50 is 93.1 µM (active). For the compound `C[C@@H]1CCCCO[C@H](CN(C)Cc2ccc(C(F)(F)F)cc2)[C@H](C)CN([C@H](C)CO)C(=O)c2cc(NC(=O)Nc3ccc(F)cc3)ccc2O1`, the AC50 at Paired box protein Pax-8 is 10.7 µM (active).

For `Cc1cc2c(cc1C)CSC(c1ccccc1OC(=O)C(C)(C)C)SC2`, the CC50 in test [5] is 16.8 µM (active). In the case of `CC1CCN(C(C(=O)NC2CCCCC2)c2cc3c(cc2[N+](=O)[O-])OCO3)CC1` (stereo not drawn), the EC50 in test [2] is > 120 µM (not active); in the test with H4, 22.1 µM (active); in test [3] it was 25 µM (active). For `CCCn1c(=N)c(C(=O)NC2CCCC2)cc2c(=O)n3cccc(C)c3nc21`, in that order: > 120 µM (not active), > 120 µM (not active) and > 120 µM (not active). Take `Cc1ccc(F)c([C@H]2C3C=CCC(c4ccccc4)C3C(=O)N2Cc2ccccc2)c1` (stereo partly drawn): the AC50 was 11 µM (active) in the test with INS1 and 3.71 µM (active) in [6].

As for `O=c1cc(Cl)[nH]c(=O)n1CCNc1ncc(C(F)(F)F)cc1Cl`, the EC50 was 12.6 µM (active) in test [2], 7.52 µM (active) with H4 and 5.68 µM (active) in test [3].

Regarding `O=C(N/N=C/c1cc(Br)cs1)c1ccc2c(c1)OCCO2`, the EC50 in [2] is 0.106 µM (active); in the test with H4, > 120 µM (not active).

Consider `COc1ccc(CN2CCN(Cc3ccccc3F)CC2)cc1OC`, for which the 50% inhibitory concentration (IC50) in test [1] is 85.5 µM (active).

For the compound `O=C(Nc1cccc(-c2cccc(Cl)c2)c1)C1CCN(Cc2ccc(CO)o2)CC1`, in test [5], the CC50 was 12.7 µM (active).

For `CCN(CC)c1ccc(/C=N/N2CCOCC2)c(O)c1`, the IC50 in test [1] is 75.6 µM (active). Further, the values for the EC50 (with H4; in test [3]) were 20 µM (active) and 4.58 µM (active), respectively. As to `Cc1cnc(NC(=O)CCc2ccccc2)s1`, the results for the EC50 (in [2]; in the test with H4; in [3]) were > 120 µM (not active), 15.2 µM (active) and 16.6 µM (active), respectively. With `CCc1cc2c(=O)c(-c3ccc4c(c3)OCCO4)coc2cc1OC(=O)c1ccco1`, the CC50 in [5] was 29.9 µM (active). Take `COC1C(CO)OC(n2c3c(Cl)cccc3c3c4c(c5c6cccc(Cl)c6[nH]c5c32)C(=O)NC4=O)C(O)C1O` (stereo not drawn): the AC50 on Paired box protein Pax-8 is 1.11 µM (active). For `O=C(NCCSc1ccccc1)c1ccco1`, the EC50 with H4 is 15 µM (active); in test [3], > 120 µM (not active). In the case of `COc1cccc(-c2nc(-c3ccc4c(c3)NC(=O)CO4)cs2)c1`, the EC50 in test [2] is 17.7 µM (active); in the test with H4, 10.8 µM (active); in test [3], 22.7 µM (active). For `CSc1ccc(C2c3[nH]c4ccccc4c3CCN2C(=O)c2cc(C)n(C)n2)cc1` (stereo not drawn) the same measures were 14.2 µM (active), 11.8 µM (active) and 17.1 µM (active).

With `c1ccc(Cn2c(-c3ccco3)nc3nc4ccccc4nc32)cc1`, the results for the concentration giving a half-maximal response (EC50) (in test [2]; in the test with H4; in test [3]) were 11.6 µM (active), > 120 µM (not active) and 0.127 µM (inconclusive), respectively.

Broadly, the IC50 is the concentration that inhibits the measured activity by half. As usually defined, the AC50 is the concentration giving half of the maximal activity seen. As usually defined, the EC50 is the concentration that produces a half-maximal response. For orientation: CC50 means the concentration that lowers cell viability or growth by half.
